Assay results published in patent US7803801B2, “Aminopyridine compounds having Syk inhibitory activity” (Japan Tobacco, Inc., priority 2005, dated 2010).
Structures can show the parent of a compound that is named as a salt.

How the values were obtained:
[1] = target: GST-Syk Full Protein (human) (Homo sapiens, UniProt P43405); assay: Syk kinase inhibition test (HTRF method); format: biochemical; conditions: Tables 1-x, compounds A; read-out: sykHTRF ave IC50
Summary of the method: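 Human GST-Syk full-length (6.4 nM) phosphorylated biotin-EDPDYEWPSA-NH2 (250 nM) with 100 μM ATP in HEPES pH 7.0/MgCl2 buffer, 2% DMSO, 30 min at room temperature. EDTA stop, then HTRF detection (streptavidin-XL665, Eu anti-phosphotyrosine) after 1 h; 665/620 ratio read.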

[2] = tested on: cultured human mast cells; assay: Degranulation inhibition test using cultured human mast cells (IgE cross-linking, β-Hexosaminidase release); format: cell-based; conditions: Mast cell; Tables 1-x, compounds A; cultured human mast cells; read-out: human degranulation ave. IC50
Summary of the method: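 CD34+ cord-blood cells cultured ≥8 weeks with SCF/IL-6/IL-3; FcεRI primed 5 days with rhIL-4 (1 ng/mL) and hIgE (0.5 μg/mL). Compound (0.1% DMSO) preincubated 10 min at 37 °C, then anti-IgE (final 10 μg/mL) 30 min; released β-hexosaminidase read at 405 nm versus total lysate, IC50 (M).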

Compound | IC50 [1] [nM] | IC50 [2] [nM]
Cc1ccnc(Nc2cccc(-c3cnc(N4CCCC(C(=O)O)C4)s3)n2)c1 (centres unmarked) [Compound A-474, 1-{5-[6-(4-methylpyridin-2-ylamino)pyridin-2-yl]thiazol-2-yl}piperidine-3-carboxylic acid] | < 100 | > 1000
Cc1ccnc(Nc2cccc(-c3cnc(N4CC[C@@H](NC(=O)CO)C4)s3)n2)c1 [Compound A-475, 2-hydroxy-N—((R)-1-{5-[6-(4-methylpyridin-2-ylamino)pyridin-2-yl]thiazol-2-yl}pyrrolidin-3-yl)acetamide] | < 100 | 100 to 1000
Cc1ccnc(Nc2cccc(-c3cnc(N4CCCC(C(N)=O)C4)s3)n2)c1 (centres unmarked) [Compound A-476, 1-{5-[6-(4-methylpyridin-2-ylamino)pyridin-2-yl]thiazol-2-yl}piperidine-3-carboxamide] | < 100 | < 100
CNC(=O)C1CCCN(c2ncc(-c3cccc(Nc4cc(C)ccn4)n3)s2)C1 (centres unmarked) [Compound A-477, N-methyl-1-{5-[6-(4-methylpyridin-2-ylamino)pyridin-2-yl]thiazol-2-yl}piperidine-3-carboxamide] | < 100 | 100 to 1000
Cc1ccnc(Nc2cccc(-c3cnc(N4CCCC(C(=O)NCCO)C4)s3)n2)c1 (centres unmarked) [Compound A-478, N-(2-hydroxyethyl)-1-{5-[6-(4-methylpyridin-2-ylamino)pyridin-2-yl]thiazol-2-yl}piperidine-3-carboxamide] | < 100 | 100 to 1000
Cc1ccnc(Nc2cccc(-c3cnc(N4CC[C@@H](O)C4)s3)n2)c1 [Compound A-479, (R)-1-{5-[6-(4-methylpyridin-2-ylamino)pyridin-2-yl]thiazol-2-yl}pyrrolidin-3-ol] | < 100 | 100 to 1000
Cc1ccnc(Nc2cccc(-c3cnc(N(C)[C@H]4CC[C@H](O)CC4)s3)n2)c1 [Compound A-480, trans-4-(N-methyl-N-{5-[6-(4-methylpyridin-2-ylamino)pyridin-2-yl]thiazol-2-yl}amino)cyclohexanol] | < 100 | 100 to 1000
Cc1ccnc(Nc2cccc(-c3cnc(N4CCC(NC(=O)CO)CC4)s3)n2)c1 [Compound A-482, 2-hydroxy-N-(1-{5-[6-(4-methylpyridin-2-ylamino)pyridin-2-yl]thiazol-2-yl}piperidin-4-yl)acetamide] | < 100 | 100 to 1000
Cc1ccnc(Nc2cccc(-c3cnc(N4CCC(N(C)C(=O)CO)CC4)s3)n2)c1 [Compound A-483, 2-hydroxy-N-methyl-N-(1-{5-[6-(4-methylpyridin-2-ylamino)pyridin-2-yl]thiazol-2-yl}piperidin-4-yl)acetamide] | < 100 | 100 to 1000
Cc1ccnc(Nc2cccc(-c3cnc(N4CCC(CNC(=O)CO)CC4)s3)n2)c1 [Compound A-486, 2-hydroxy-N-(1-{5-[6-(4-methylpyridin-2-ylamino)pyridin-2-yl]thiazol-2-yl}piperidin-4-ylmethyl)acetamide] | < 100 | 100 to 1000
CC(=O)NCC1CCN(c2ncc(-c3cccc(Nc4cc(C)ccn4)n3)s2)CC1 [Compound A-487, N-(1-{5-[6-(4-methylpyridin-2-ylamino)pyridin-2-yl]thiazol-2-yl}piperidin-4-ylmethyl)acetamide] | < 100 | 100 to 1000
CNC(=O)[C@@H]1CCCN1c1ncc(-c2cccc(Nc3cc(C)ccn3)n2)s1 [Compound A-488, N-methyl-(S)-1-{5-[6-(4-methylpyridin-2-ylamino)pyridin-2-yl]thiazol-2-yl}pyrrolidine-2-carboxamide dihydrochloride] | < 100 | 100 to 1000
Cc1ccnc(Nc2cccc(-c3cnc(N4CC[C@@H](NS(C)(=O)=O)C4)s3)n2)c1 [Compound A-489, N—((R)-1-{5-[6-(4-methylpyridin-2-ylamino)pyridin-2-yl]thiazol-2-yl}pyrrolidin-3-yl)methanesulfonamide] | < 100 | 100 to 1000
